How the values were obtained:
Experiment in all cases: microbe, parasite or virus in culture
Format in all cases: cell-based
[1] = test system: influenza A virus minigenome (PB2, PB1, PA, NP; luciferase reporter) in 293T cells, RNP_Hubei; conditions: HEK-293T, 48 h
[2] = test system: influenza A virus minigenome (PB2, PB1, PA, NP; luciferase reporter) in 293T cells, RNP_CAL; conditions: HEK-293T, 48 h, read-out: RNP_CAL_EC50
[3] = test system: influenza A virus minigenome (PB2, PB1, PA, NP; luciferase reporter) in 293T cells, RNP_Alaska; conditions: HEK-293T, 48 h

Measured: EC50

CC(=O)OCOc1c2n(ncc1=O)[C@@H]([C@H](c1cccc(F)c1)c1cccc(F)c1F)[C@H]1CCCN1C2=O [Example 114, (((9aR,10S)-10-((R)-(2,3-difluorophenyl)(3-fluorophenyl)methyl)-3,5-dioxo-3,5,8,9,9a,10-hexahydro-7H-pyrrolo[1′,2′:4,5]pyrazino[1,2-b]pyridazin-4-yl)oxy)methyl acetate]
< 100 nM: all assays above

COC(=O)Oc1c2n(ncc1=O)[C@@H]([C@H](c1cccc(F)c1)c1cccc(F)c1F)[C@H]1CCCN1C2=O [Example 115, (9aR,10S)-10-((R)-(2,3-difluorophenyl)(3-fluorophenyl)methyl)-3,5-dioxo-3,5,8,9,9a,10-hexahydro-7H-pyrrolo[1′,2′:4,5]pyrazino[1,2-b]pyridazin-4-yl methyl carbonate]
< 100 nM: all assays above

Cc1oc(=O)oc1COc1c2n(ncc1=O)[C@@H]([C@H](c1cccc(F)c1)c1cccc(F)c1F)[C@H]1CCCN1C2=O [Example 116, (9aR,10S)-10-((R)-(2,3-difluorophenyl)(3-fluorophenyl)methyl)-4-((5-methyl-2-oxo-1,3-dioxol-4-yl)methoxy)-8,9,9a,10-tetrahydro-7H-pyrrolo[1′,2′:4,5]pyrazino[1,2-b]pyridazine-3,5-dione]
< 100 nM: all assays above
